Measurements reported in patent US20250134799A1, “COMPOSITION CONTAINING NERO DI TROIA POMACE EXTRACT” (PLANBIO COSMETICS SRL, priority 2022, published 2025).

Test system: HaCaT cells
Assay: Cellular viability of HaCaT cells by MTS colorimetric assay
Assay type: cell-based, human
Settings: 24 hours
Method: The aim of this study was to evaluate in vitro the effect of GExtract NdT (obtained in Example 1) on the viability of the human keratinocyte cell line HaCaT. The evaluation was performed on cells exposed to GExtract NdT at a dilution of 2% in complete medium for 24 hours. The cellular viability was measured by MTS colorimetric essay through the absorbance measurement obtained from the conversion of a bioreduced tertazolium compound from viable cells into a coloured formazan soluble in the culture medium. The HaCaT cells were exposed for 24 hours to 2% of GExtract NdT of and Triton-X 100 and subsequently the viability was evaluated by MTS assay.

## TRITON-X 100
  Concentration from which the surfactant lysed all the cells: ≥ 0.01%
0.005% (v/v)
  % CTR (cell viability, percentage normalized on the control group): 52.098%
0.01% (v/v)
  % CTR (cell viability, percentage normalized on the control group): 0%
0.05% (v/v)
  % CTR (cell viability, percentage normalized on the control group): 0%
0.5% (v/v)
  % CTR (cell viability, percentage normalized on the control group): 0%
